{
  "source": "patent US9126953B2",
  "about": "“Triazole compounds that modulate HSP90 activity” (Synta Pharmaceuticals Corp., priority 2008, dated 2015)",
  "key": {"[1]": {"test_system": "MV-4-11 cells", "experiment": "Her2 degradation Method 2: MV-4-11 cell survival, Cell Counting Kit-8 (Table 2: inhibition of Hsp90)", "type": "cell-based", "details": "Homo sapiens, MV4-11, 72 hours, cell survival by Cell Counting Kit-8, text calls it IC50 for Her2 degradation, read-out: IC50 range of compounds of the invention for inhibition of Hsp90, IC50", "description": "MV-4-11 cells (20,000 cells/well) were cultured in 96-well plates and maintained at 37° C. for several hours. The cells were treated with a compound of the invention or 17AAG (a positive control) at various concentrations and incubated at 37° C. for 72 hours. Cell survival was measured with Cell Counting Kit-8 (Dojindo Laboratories, Cat. # CK04)."}, "[2]": {"test_system": "Her2", "experiment": "Degradation of Her2 in BT-474 cells, Method 1 (Western blot)", "type": "cell-based, human", "details": "0.5 μM, overnight, positive control", "description": "Human high-Her2 breast carcinoma BT474 (HTB-20), SK-BR-3 (HTB-30) and MCF-7 breast carcinoma (HTB-22) from American Type Culture Collection, VA, USA were grown in Dulbecco's modified Eagle's medium with 4 mM L-glutamine and antibiotics (100 IU/ml penicillin and 100 μg/ml streptomycine; GibcoBRL). To obtain exponential cell growth, cells were trypsinized, counted and seeded at a cell density of 0.5×10^6 cells/ml regularly, every 3 days. All experiments were performed on day 1 after cell passage.\nBT-474 cells are treated with 0.5 μM, 2 μM, or 5 μM of 17AAG (a positive control) or 0.5 μM, 2 μM, or 5 μM of a compound of the invention overnight in DMEM medium. After treatment, each cytoplasmic sample is prepared from 1×10^6 cells by incubation of cell lysis buffer (#9803, Cell Signaling Technology) on ice for 10 minutes. The resulting supernatant used as the cytosol fractions is dissolved with sample buffer for SDS-PAGE and run on a SDS-PAGE gel, blotted onto a nitrocellulose membrane by using semi-dry transfer. Non-specific binding to nitrocellulose is blocked with 5% skim milk in TBS with 0.5% Tween at room temperature for 1 hour, then probed with anti-Her2/ErB2 mAb (rabbit IgG, #2242, Cell Signaling) and anti-Tubulin (T9026, Sigma) as housekeeping control protein. […]"}},
  "data": [
    {"smiles": "NC(=O)c1nnc(-c2cc3c(cc2O)OCO3)n1-c1ccc(N2CCOCC2)cc1", "note": "[Compound 1, 5-(6-hydroxybenzo[d][1,3]-dioxol-5-yl)-4-(4-morpholinophenyl)-4H-1,2,4-triazole-3-carboxamide]", "values": [
      {"measurement": "IC50", "setting": "[1]", "result": "20 to 50", "unit": "µM"}
    ]},
    {"smiles": "NC(=O)c1nnc(-c2cc3c(cc2O)OCCC3)n1-c1ccc2c(c1)OCO2", "note": "[Compound 2, 4-(benzo[d][1,3]dioxol-5-yl)-5-(7-hydroxychroman-6-yl)-4H-1,2,4-triazole-3-carboxamide]", "values": [
      {"measurement": "IC50", "setting": "[1]", "result": "≤ 10", "unit": "µM"}
    ]},
    {"smiles": "COc1ccc(-n2c(C(N)=O)nnc2-c2cc3c(cc2O)OCC3)cc1", "note": "[Compound 3, 5-(6-hydroxy-2,3-dihydrobenzofuran-5-yl)-4-(4-methoxyphenyl)-4H-1,2,4-triazole-3-carboxamide]", "values": [
      {"measurement": "IC50", "setting": "[1]", "result": "20 to 50", "unit": "µM"}
    ]},
    {"smiles": "COc1ccc(-n2c(C(N)=O)nnc2-c2cc3c(cc2O)OCCC3)cc1", "note": "[Compound 4, 5-(7-hydroxychroman-6-yl)-4-(4-methoxyphenyl)-4H-1,2,4-triazole-3-carboxamide]", "values": [
      {"measurement": "IC50", "setting": "[1]", "result": "> 50", "unit": "µM"}
    ]},
    {"smiles": "COc1ccc(-n2c(C(N)=O)nnc2-c2cc3c(cc2O)CCC3)cc1", "note": "[Compound 5, 5-(6-hydroxy-2,3-dihydro-1H-inden-5-yl)-4-(4-methoxyphenyl)-4H-1,2,4-triazole-3-carboxamide]", "values": [
      {"measurement": "IC50", "setting": "[1]", "result": "10 to 20", "unit": "µM"}
    ]},
    {"smiles": "COc1ccc(-n2c(C(N)=O)nnc2-c2c(O)ccc3c2CCCC3)cc1", "note": "[Compound 6, 5-(2-hydroxy-5,6,7,8-tetrahydronaphthalen-1-yl)-4-(4-methoxyphenyl)-4H-1,2,4-triazole-3-carboxamide]", "values": [
      {"measurement": "IC50", "setting": "[1]", "result": "20 to 50", "unit": "µM"}
    ]},
    {"smiles": "COc1ccc(-n2c(C(N)=O)nnc2-c2c(O)ccc3ccccc23)cc1", "note": "[Compound 7, 5-(2-hydroxynaphthalen-1-yl)-4-(4-methoxyphenyl)-4H-1,2,4-triazole-3-carboxamide]", "values": [
      {"measurement": "IC50", "setting": "[1]", "result": "20 to 50", "unit": "µM"}
    ]},
    {"smiles": "COc1ccc(-n2c(C(N)=O)nnc2-c2ccc3c(c2O)CCCC3)cc1", "note": "[Compound 8, 5-(1-hydroxy-5,6,7,8-tetrahydronaphthalen-2-yl)-4-(4-methoxyphenyl)-4H-1,2,4-triazole-3-carboxamide]", "values": [
      {"measurement": "IC50", "setting": "[1]", "result": "> 50", "unit": "µM"}
    ]},
    {"smiles": "C=CCNC1=C2C[C@@H](C)C[C@H](OC)[C@H](O)[C@@H](C)/C=C(\\C)[C@H](OC(N)=O)[C@@H](OC)/C=C\\C=C(/C)C(=O)NC(=CC1=O)C2=O", "note": "[Compound 17AAG, 17-allylamino-17-demethoxygeldanamycin]", "values": [
      {"measurement": "degradation of Her2", "setting": "[2]", "result": "partial degradation"}
    ]}
  ]
}
